Results published in a polymer gas permeability compilation.

Structure (SMILES) | CH4 permeability [Barrer] | CO2 permeability [Barrer] | N2 permeability [Barrer] | O2 permeability [Barrer] | H2 permeability [Barrer]
*CCO* (repeat unit) | 4.85 | 40.5 | 1.32 | 4.34 | 6.9
*/C(C)=C(/*)c1ccc([Si](C)(C)C)cc1 (repeat unit) | 200 | 950 | 100 | 240 | 510
*Oc1c(C)cc(*)cc1C (repeat unit) | 4.1 | 66 | 3.5 | 14.6 | 68.7
*Cc1ccc(C*)c(CC)c1 (repeat unit) | – | 1.89 | 0.0904 | 0.5 | 4.31
*C(C(=O)OC(C)C)C(*)C(=O)OC(C)CC (repeat unit) | – | – | 5 | 12 | 51
*C1C(*)C2CC1C1C[CH]([Ge]([CH3])([CH3])[CH3])C21 (repeat unit) | 620 | – | – | – | –
*CC(*)Cl (repeat unit) | 0.0263 | 0.16 | 0.0109 | 0.0453 | 1.79
*/C=C/C1CC(*)CC1[Si](C)(C)C (repeat unit) | 17 | 89 | 7.2 | 30 | 140
*c1ccc(Oc2ccc3ccccc3c2-c2c(Oc3ccc(N4C(=O)c5ccc(C(c6ccc7c(c6)C(=O)N(*)C7=O)(C(F)(F)F)C(F)(F)F)cc5C4=O)cc3C(F)(F)F)ccc3ccccc23)c(C(F)(F)F)c1 (repeat unit) | 0.41 | 25.9 | 0.78 | 4.89 | 36.8
*CC(C)C(=O)OCCOC(=O)C(C)C* (repeat unit) | 4.8 | 95 | 1.6 | 4.7 | 15
*=CC1CC(C=*)C2C(=O)N(C3CCCCC3)C(=O)C12 (repeat unit) | 0.8 | 13.7 | 0.52 | 2.21 | 16.1
*O[Si](*)(C)CCC(F)(F)F (repeat unit) | 201 | 1390 | 88.3 | 200 | –
*c1ccc(Oc2ccc(N3C(=O)c4ccc(Sc5ccc6c(c5)C(=O)N(*)C6=O)cc4C3=O)cc2)cc1 (repeat unit) | – | – | 0.021 | 0.198 | 4.68
*c1ccc2c(c1)C1c3ccccc3C2c2cc(N3C(=O)c4ccc(C(c5ccc6c(c5)C(=O)N(*)C6=O)(C(F)(F)F)C(F)(F)F)cc4C3=O)ccc21 (repeat unit) | 7.2 | 202 | 10.7 | 43.9 | 329
*C=CCCC* (repeat unit) | 430 | 2000 | 100 | 310 | 415
*CC(*)(C)C#N (repeat unit) | – | 0.0032 | – | 0.0012 | –
*c1ccc(-c2ccc(Oc3ccc(C4(c5ccc(Oc6ccc(-c7ccc(N8C(=O)c9ccc(C(c%10ccc%11c(c%10)C(=O)N(*)C%11=O)(C(F)(F)F)C(F)(F)F)cc9C8=O)cc7)cc6C(F)(F)F)cc5)c5ccccc5C(=O)N4c4ccccc4)cc3)c(C(F)(F)F)c2)cc1 (repeat unit) | 1.01 | 53.9 | 1.71 | 10.2 | –
*c1ccc(Oc2ccc(C(c3ccc(Oc4ccc(N5C(=O)c6ccc(-c7ccc8c(c7)C(=O)N(*)C8=O)cc6C5=O)cc4C(F)(F)F)cc3)(C(F)(F)F)C(F)(F)F)cc2)c(C(F)(F)F)c1 (repeat unit) | 0.279 | 9.15 | 0.563 | 3.11 | 30.6
*C(Cl)CCCC(*)S(=O)(=O)Cl (repeat unit) | – | – | 0.955 | 3.29 | 13.3
*c1ccc(Oc2ccc(-c3ccc(-c4ccc(Oc5ccc(N6C(=O)c7ccc(C(c8ccc9c(c8)C(=O)N(*)C9=O)(C(F)(F)F)C(F)(F)F)cc7C6=O)cc5)c(C(F)(F)F)c4)cc3)cc2C(F)(F)F)cc1 (repeat unit) | 1.19 | 33.1 | 2.87 | 15.2 | –
*C(=C(*)c1ccc([Si](c2ccccc2)(c2ccccc2)c2ccccc2)cc1)c1ccccc1 (repeat unit) | 5.58 | 78.8 | 2.78 | 12.1 | 51.7

More lines, now with the values ahead:

CH4 permeability [Barrer] | CO2 permeability [Barrer] | N2 permeability [Barrer] | O2 permeability [Barrer] | H2 permeability [Barrer] | Structure (SMILES)
0.121 | 6.78 | 0.269 | 1.81 | – | *c1ccc(Cc2ccc(N3C(=O)c4ccc(C(c5ccc6c(c5)C(=O)N(*)C6=O)(C(F)(F)F)C(F)(F)F)cc4C3=O)c(Cl)c2)cc1Cl (repeat unit)
– | – | 1.44 | 7.75 | 74.4 | *c1ccc2c(c1)C(=O)n1c-2nc2ccc(-c3ccc4c(c3)nc3n4C(=O)c4ccc(C(*)(C(F)(F)F)C(F)(F)F)cc4-3)cc21 (repeat unit)
1.61 | 72 | 4 | 18 | 70.7 | *Oc1ccc(S(=O)(=O)c2ccc(Oc3c(C)cc(C(c4cc(C)c(*)c(C)c4)(C(F)(F)F)C(F)(F)F)cc3C)cc2)cc1 (repeat unit)
1.9 | 62 | 2.4 | 12 | 100 | *c1ccc(C)c(-c2cc(C)c(-c3cc(*)ccc3C)cc2C)c1 (repeat unit)
0.09 | 4.32 | 0.14 | 0.98 | 5.95 | *c1ccc2c(-c3c(O)ccc4cc(N5C(=O)c6ccc(C(c7ccc8c(c7)C(=O)N(*)C8=O)(C(F)(F)F)C(F)(F)F)cc6C5=O)ccc34)c(O)ccc2c1 (repeat unit)
– | – | 0.094 | 0.663 | 10.9 | *c1ccc(-c2ccc(N3C(=O)c4ccc([Si](C)(C)c5ccc6c(c5)C(=O)N(*)C6=O)cc4C3=O)c(C)c2)cc1C (repeat unit)
3.47 | 56.9 | 3.72 | 15.7 | 86.7 | *Oc1ccc(C(c2ccc(OC(=O)c3cc(C(*)=O)cc(C(C)(C)C)c3)cc2)(C(F)(F)F)C(F)(F)F)cc1 (repeat unit)
1.9 | 63 | 2.05 | 11 | 100 | *c1c(C)c(C)c(N2C(=O)c3ccc(Oc4c(C)ccc(C)c4Oc4ccc5c(c4)C(=O)N(*)C5=O)cc3C2=O)c(C)c1C (repeat unit)
230 | 4300 | 208 | 901 | 3420 | *c1c(C)cc(-c2cc(C)c(N3C(=O)c4cc5c(cc4C3=O)C3(C)CCC5(C)c4cc5c(cc43)C(=O)N(*)C5=O)c3ccccc23)c2ccccc12 (repeat unit)
0.0258 | 1.15 | 0.0454 | 0.31 | 5.92 | *c1ccc(Oc2cccc(-n3c(=O)c4cc5c(=O)n(*)c(=O)c5cc4c3=O)c2)cc1 (repeat unit)
0.944 | 25.5 | 1.2 | 6 | – | *Oc1ccc(S(=O)(=O)c2ccc(Oc3c(C)cc(-c4cc(C)c(*)c(C)c4C)c(C)c3C)cc2)cc1 (repeat unit)
563 | 7880 | 341 | 1390 | 4420 | *Oc1cc2c(cc1O*)C1(c3ccccc3-c3cc4c(cc31)Oc1c(C#N)c(*)c(*)c(C#N)c1O4)c1cc(C)c(C)cc1-2 (repeat unit)
0.223 | 6.68 | 0.36 | 2.29 | – | *OC(=O)Oc1c(Cl)cc(C(C)(C)c2cc(Cl)c(*)c(Cl)c2)cc1Cl (repeat unit)
0.015 | 0.749 | 0.02 | 0.185 | – | *Nc1ccc(Oc2ccc(Oc3ccc(NC(=O)CN4C(=O)c5ccc(C(*)=O)cc5C4=O)cc3)cc2)cc1 (repeat unit)
0.11 | 3.2 | 0.13 | 0.75 | 7.6 | *Nc1ccc(S(=O)(=O)c2ccc(NC(=O)c3cc(C(*)=O)cc(-c4ccccc4)c3)cc2)cc1 (repeat unit)
0.53 | 24 | 0.68 | 3.5 | – | *OC(=O)c1cccc(C(=O)Oc2c(C)cc(C(C)(C)c3cc(C)c(O*)c(C)c3)cc2C)c1 (repeat unit)
0.853 | 21.5 | 0.89 | 5.63 | 54 | *Oc1c(Br)cc(C(C)(C)c2cc(Br)c(OC(=O)c3cc(C(*)=O)cc(C(C)(C)C)c3)c(Br)c2)cc1Br (repeat unit)
0.17 | 6.12 | 0.292 | 1.4 | 19 | *c1cccc(Oc2ccc(C(c3ccc(Oc4cccc(-n5c(=O)c6cc7c(=O)n(*)c(=O)c7cc6c5=O)c4)cc3)(C(F)(F)F)C(F)(F)F)cc2)c1 (repeat unit)
1.06 | 22.7 | 1.06 | 6.27 | – | *Oc1c(C)cc(C(C)(C)c2cc(C)c(OC(=O)c3cc(C(*)=O)cc(C(C)(C)C)c3)c(Br)c2)cc1Br (repeat unit)
22400 | 32800 | 9200 | 11400 | 20700 | *C(=C(*)c1ccc2c(c1)C(C)(C)CC2(C)C)c1ccc(Br)cc1 (repeat unit)
0.59 | 24 | 0.7 | – | – | *c1cc2c(cc1C)-c1cc(C)c(N3C(=O)c4cc5c(cc4C3=O)S(=O)(=O)c3cc4c(cc3S5(=O)=O)C(=O)N(*)C4=O)cc1S2(=O)=O (repeat unit)
